This note sets out measurements from publication PMC7509492, “To What Extent Do Fluorophores Bias the Biological Activity of Peptides? A Practical Approach Using Membrane-Active Peptides as Models” (Frontiers in Bioengineering and Biotechnology, 2020).

The test system of series [1] is HBEC-5i cells (in vitro BBB model). The series can be described thus: In vitro BBB translocation across HBEC-5i transwell monolayer. The note with it: HBEC-5i monolayer on PET transwell 1.0 μm pores, apical to basolateral, 10 μM, 24 h, DMEM:F12 without phenol red, mean ± SD, triplicates of three independent experiments. The format is in vitro ADME, human. The text has this:
HBEC-5i cells were allowed to grow until confluence in a gelatin-coated T-flask. Then, cells were carefully harvested with trypsin-EDTA (Gibco/Thermo Fisher, United States) and seeded 8,000 cells/well to 0.1% gelatin solution coated tissue culture inserts [transparent polyester (PET) membrane with 1.0 μm pores] for 24-well plates (BD Falcon, United States). During 8 days, the medium was changed every 2 days. After 8 days, cells were washed two times with 1× PBS and once with DMEM:F12 medium without phenol red (Gibco/Thermo Fisher, United States). Then, peptides diluted in DMEM:F12 medium without phenol red to a final concentration of 10 μM were added to the apical side of the in vitro BBB model (Figure 1). Experiments were performed on different days using independently grown cell cultures.
FIGURE 1 Scheme of an in vitro BBB transwell membrane system. Human brain endothelial cells (HBEC-5i) are cultured as monolayer on the apical side of a polyester (PET) transwell insert (1.0 μm pore size). Then, 10 μM of peptides are added to the apical side, and the translocation measured as the amount detected on the basolateral side.
The translocation of peptides labeled with different fluorophores was determined by fluorescence emission. After 24 h incubation, samples from the apical and basolateral side were collected and analyzed. Fluorescence was measured using the infinite F200 TECAN plate reader. The percentage (%) of translocation was calculated using the following equation:
(3) Translocation(%)=(Fi-Fcells/Fpeptide-FMedium)×100
Fi is the fluorescence intensity recovered, Fcells is the fluorescence intensity recovered from cells without peptide incubation, Fpeptide is the fluorescence intensity of total peptide initially added to the transwell apical side, and FMedium is the fluorescence intensity of the medium.
The translocation of unlabeled peptides was determined by the calculation of the respective area under the curve (AUC) in the reversed phase HPLC chromatograms. After 24 h incubation, samples from the apical and basolateral side were collected and analyzed by HPLC on a PerkinElmer Series 200 pump coupled to a PerkinElmer Series 200 UV/Vis Detector on a Luca C18 column (4.6 mm × 50 mm, 3 μm, Phenomenex, United States), eluting with linear gradients of HCOOH/MeCN (0.1%, v/v) into HCOOH/H2O (0.1%, v/v) over 15 min at 1 mL/min. UV detection was λ = 220 nm. The percentage (%) of translocation was calculated using the following equation:
(4) Translocation(%)=(AUCi/AUCpeptide)×100
AUCi is the AUC of peptide recovered and AUCpeptide is the AUC of total peptide initially added to the transwell apical side.

Series [2] is described as follows: CellTiter-Blue cell viability assay, HBEC-5i. The format is cell-based, human. The note with it: human, HBEC-5i cells, Table 1, peptide 0.01-100 μM, mean ± SD, triplicates of three independent experiments, read-out: Cytotoxicity HBEC-5i cells IC50. As to the method:
(§1) Peptides cytotoxicity against both HBEC-5i and MDA-MB-231 cells was determined using CellTiter-Blue® Cell Viability Assay, according to the manufacturer’s instructions. The assay is based on the ability of viable cells to reduce resazurin into resorufin, a highly fluorescent metabolite. […] Therefore, using this methodology is possible to distinguish between metabolic and non-metabolic cells and indirectly determine the cytotoxicity of peptides. Briefly, HBEC-5i and MDA-MB-231 cells were carefully detached from T-flasks, as described previously, and seeded 15,000/100 and 10,000/100 μL, respectively, in 96-well plates (Corning, United States) and incubated for 24 h. After medium removal, cells were washed two times with 1× PBS and 100 μL of previously diluted peptides (range between 0.01 and 100 μM) in either DMEM or DMEM:F12 medium were added to MDA-MB-231 or HBEC-5i cells, respectively. After 24 h incubation, cells were washed two times with 1× PBS, and 20 μL of CellTiter-Blue® Reagent (diluted in 100 μL of medium) was added to each well and incubated for 3 h in a humidified atmosphere of 5% CO2 at 37°C. The fluorescence intensity was measured at λ with an excitation of 560 nm and maximum emission at 590 nm using the infinite F200 TECAN plate reader. Medium and 1% Triton X-100-containing medium were used as positive controls (100% cell viability) and negative controls (0% cell viability), respectively. Cell viability (%) was determined using the following equation:
(§2) (7) CellViability=FP-FNC/FPC-FNC×100
(§3) Fp is the fluorescence intensity of peptide-treated cells, FNC is the fluorescence intensity for negative controls, and FPC is the fluorescence intensity for positive controls.
(§4) Experiments were performed on different days using independently grown cell cultures.
(§5) FIGURE 4 In vitro cytotoxicity unlabeled- and labeled-peptides. (A,B) Cytotoxicity against HBEC-5i cells. (C,D) Cytotoxicity against MDA-MB-231 cells. 1.5 × 10^4 and 1.0 × 10^4 cells of HBEC-5i and MDA-MB-231 cells, respectively, were incubated with various concentrations of peptides (range from 0.01 to 100 μM). The percentage of viability was determined using CellTiter® Blue reagent assay. […] Error bars, S.D.

For another series, the system named is HBEC-5i cells. Description: CellTiter-Blue cell viability assay, HBEC-5i. It counts as cell-based, human. Conditions: 24 h, peptide 0.01-100 μM, mean ± SD, triplicates of three independent experiments; for Cytotoxicity HBEC-5i cells IC10: Table 1, concentration causing 10% cell death; for Cytotoxicity HBEC-5i cells IC90: Table 1, concentration causing 90% cell death. As to the method: as §1, §2, §3, §4, §5
For orientation: Alamar Blue is a resazurin reagent that responds to reducing activity.

Where [3] appears, read: labeled peptide, quantified by fluorescence emission.

Like-named read-outs stand apart in the source and are kept apart here. Ends that are not written are not given here. Peptide text beside a SMILES is read from it. * marks the point of attachment. RhodamineB = CCN(CC)c1ccc2c(-c3ccccc3C(=O)*)c3ccc(=[N+](CC)CC)cc-3oc2c1; X1 = CC[N+]1=C(C=CC=C2N(CCCCCC(=O)*)c3ccccc3C2(C)C)C(C)(C)c2ccccc21 A value given as a limit tells only on which side of the number the result lay.

Experimental for human RBCs: Fresh human blood was collected in EDTA tubes and centrifuged at 1,000 × g for 10 min at 4°C. The supernatant was discharged, and the pellet containing RBCs was washed three times with 1× PBS (137 mM NaCl, 2.7 mM KCl, 10 mM Na2HPO4, and 1.8 mM KH2PO4, pH 7.4) and resuspended in 1× PBS to obtain a 2.0% (v/v) suspension. Then, RBCs were added to centrifuge tubes containing two-fold serially diluted peptides to a final concentration ranging from 0.01 to 100 μM. The suspension was incubated for 24 h at 37°C with gentle stirring. After that, samples were centrifuged for 2 min at 1,000 × g. Supernatants were transferred to 96-well plates, and the hemoglobin released measured by absorbance at 570 nm in an Infinite F200 TECAN plate reader. 1× PBS with no peptides and Triton X-100 at 1 and 4% (v/v) were used as negative and positive controls, respectively. Hemolytic activity (%) was determined using the following equation:
(2) Hemolyticactivity(%)=AbsPT-AbsNC/AbsPC-AbsNC
where, AbsPT is the absorbance of treated samples, AbsNC is the absorbance from negative control, and AbsPC absorbance from positive control.
HC50 values were determined using the GraphPad Prism 7.0 software using a log(inhibitor) vs. normalized response. Experiments were performed on different days using independent blood donors.
(range from 0.01 to 100 μM). The percentage of hemolysis was determined by the absorbance of hemoglobin released into the supernatant. Melittin was included as a control peptide with hemolytic properties. The values were obtained from triplicates of three independent experiments. Error bars, S.D.

Take `CC[C@H](C)[C@H](NC(=O)CNC(=O)[C@H](C)NC(=O)CCCCCN1C(=CC=CC2=[N+](CC)c3ccccc3C2(C)C)C(C)(C)c2ccccc21)C(=O)N[C@@H](CC(C)C)C(=O)N[C@@H](CCCCN)C(=O)N[C@@H](CCCNC(=N)N)C(=O)N[C@@H](Cc1c[nH]c2ccccc12)C(N)=O` [Q570-PepH3] (X1-AGILKRW-NH2): in series [1] (setting [3]), the “Translocation (%)” value turned out to be 59.60 ± 2.64%. Besides, the CC50 at 24 h in series [2] was greater than 200 µM. In the series on HBEC-5i cells, the “Cytotoxicity HBEC-5i cells IC10” value was greater than 200 µM. Also, in the series with human RBCs, the “Hemolytic activity HC10” value is listed as greater than 200 µM, the “Hemolytic activity HC50” value is greater than 200 µM and the “Hemolytic activity HC90” value is greater than 200 µM. For the same compound, in the series with human RBCs (pH 7.4), the “Hemolytic activity HC10” value was greater than 200 µM, the “Hemolytic activity HC50” value was greater than 200 µM and the “Hemolytic activity HC90” value was greater than 200 µM.
Turning to `CC[C@H](C)[C@H](NC(=O)CNC(=O)[C@H](C)NC(=O)c1ccccc1-c1c2ccc(=[N+](CC)CC)cc-2oc2cc(N(CC)CC)ccc12)C(=O)N[C@@H](CC(C)C)C(=O)N[C@@H](CCCCN)C(=O)N[C@@H](CCCNC(=N)N)C(=O)N[C@@H](Cc1c[nH]c2ccccc12)C(N)=O` [RhB-PepH3] (RhodamineB-AGILKRW-NH2), the “Translocation (%)” value in series [1] (setting [3]) is 51.57 ± 4.81%. Moreover, the CC50 at 24 h in series [2] was greater than 200 µM. In the series with HBEC-5i cells, the “Cytotoxicity HBEC-5i cells IC10” value is greater than 200 µM and the “Cytotoxicity HBEC-5i cells IC90” value was greater than 200 µM. In the series on human RBCs, the “Hemolytic activity HC10” value stood at 9.208 ± 1.564 µM, the “Hemolytic activity HC50” value was 128.3 ± 6.596 µM and the “Hemolytic activity HC90” value was greater than 200 µM. Besides, in the series on human RBCs (pH 7.4), the “Hemolytic activity HC10” value was 9.208 µM, the “Hemolytic activity HC50” value came to 128.3 µM and the “Hemolytic activity HC90” value was greater than 200 µM.
As to SGTQEEY-NH2 [PepNeg], the “Translocation (%)” value in series [1] (unlabeled peptide, quantified by HPLC (AUC, UV 220 nm)) came out at 50.16 ± 3.13%. Also, the CC50 at 24 h in series [2] was greater than 200 µM. Moreover, in the series with HBEC-5i cells, the “Cytotoxicity HBEC-5i cells IC10” value was greater than 200 µM and the “Cytotoxicity HBEC-5i cells IC90” value is greater than 200 µM. Further, in the series on human RBCs (pH 7.4), the “Hemolytic activity HC10” value is greater than 200 µM, the “Hemolytic activity HC50” value was greater than 200 µM and the “Hemolytic activity HC90” value is greater than 200 µM.
